The conditions of data set [1]: cited from earlier work.
A short description of data set [2]: Solubility by UV-VIS measurement (Example 1). Conditions: room temperature, UV-VIS at 248 nm, filtered by 100 nm syringe filter. Format: physicochemical. As for the experimental part: The solubility of nanostructured Ezetimibe compared to the reference form of the active compound was determined in distilled water and 0.05% SDS solution by UV-VIS measurements (Thermo Genesys 10S spectrophotometer) at 248 nm wavelength and room temperature. The redispersed sample was filtered by 100 nm disposable syringe filter.

Data set [3] can be described thus: PAMPA permeability measurement (Example 5). The conditions noted are these: redispersed in distilled water; receiver phosphate buffered saline with 1% sodium lauryl sulphate; UV at 248 nm. The class given is in vitro ADME. The procedure:
Reference Ezetimibe and solid nanostructured Ezetimibe was redispersed in distilled water and permeability was measured across and artificial membrane composed of dodecane with 20% soy lecithin. The sample containing the reference compound was a suspension of crystals visible by the naked eye, while the nanostructured sample was an opalescent colloid solution. The receiver compartment was phosphate buffered saline with 1% sodium lauryl sulphate.
A general note: The PAMPA barrier holds no transporters, so it reflects passive diffusion.

For data set [4] the following is noted: cited from earlier work. The source holds these as a separate data set.
A further data set deals with human plasma proteins. The conditions noted are these: cited from earlier work.

For the compound `O=C1[C@H](CC[C@H](O)c2ccc(F)cc2)[C@@H](c2ccc(O)cc2)N1c1ccc(F)cc1` [Ezetimibe, 1-(4-fluorophenyl)-3(R)-[3-(4-fluorophenyl)-3(S)-hydroxypropyl]-4(S)-(4-hydroxyphenyl)-2-azetidinone], in data set [1] (ambient temperature), the stability result is “stable at ambient temperature”. Moreover, the “solubility in ethanol, methanol and acetone (descriptive)” value in data set [1] (ethanol, methanol, acetone) was “freely to very soluble”. In data set [1] (water), the “solubility in water (descriptive)” value is “practically insoluble”. In addition, in data set [2] (0.05% SDS solution), the “solubility in 0.05% SDS solution” value is reported as “under the detection limit”. The “solubility in distilled water” value in data set [2] (distilled water) was “under the detection limit”. In addition, the PAMPA permeability result in data set [3] was “under the detection limit”. In data set [4] (between 5 and 20 mg), the “deviation from dose proportionality” value is recorded as “no substantial deviation from dose proportionality”. The “increase of Cmax with food” value in data set [4] (consumption of high-fat meals, ZETIA 10-mg tablets) is 38%. Besides, the “effect of concomitant food on extent of absorption” value in data set [4] (high-fat or non-fat meals, ZETIA 10-mg tablets) is on record as “no effect”. Further, the “bioavailability (estimated)” value in data set [4] (oral) is 35-65%.
As to `O=C(O)[C@H]1O[C@@H](Oc2ccc([C@@H]3[C@@H](CC[C@H](O)c4ccc(F)cc4)C(=O)N3c3ccc(F)cc3)cc2)[C@H](O)[C@@H](O)[C@@H]1O` [Ezetimibe-glucuronide], the “bound to human plasma proteins” value in the data set with human plasma proteins was above 90%. Also, in data set [4] (in vivo, po, 10 mg), the “mean peak plasma concentration (Cmax)” value was 45 to 71 ng/mL and the tmax is 1 to 2 h.

The values are drawn from patent US20130210794A1, “NANOSTRUCTURED EZETIMIBE COMPOSITIONS, PROCESS FOR THE PREPARATION THEREOF AND PHARMACEUTICAL COMPOSITIONS CONTAINING THEM” (priority 2010, published 2013).
